US12472193B2, “Methods and compositions for treating and preventing respiratory related diseases and conditions with xylitol-headgroup lipid analogs” (National Jewish Health, priority 2017, dated 2025)

Columns and labels:
TLR 3 ectodomain = molecular target: T1, TLR 3 ectodomain (Homo sapiens, UniProt O15455); assay: Binding of TLR 3 ectodomain to solid phase phospholipid; conditions: for binding to TLR 3 ectodomain: 0.625 nmol lipid per well, 6 μg/mL TLR 3 protein; for concentration-dependent binding of TLR 3: binding curves
T1 construct: purchased R&D system
T1 sequence (O15455 24-704 limits assumed): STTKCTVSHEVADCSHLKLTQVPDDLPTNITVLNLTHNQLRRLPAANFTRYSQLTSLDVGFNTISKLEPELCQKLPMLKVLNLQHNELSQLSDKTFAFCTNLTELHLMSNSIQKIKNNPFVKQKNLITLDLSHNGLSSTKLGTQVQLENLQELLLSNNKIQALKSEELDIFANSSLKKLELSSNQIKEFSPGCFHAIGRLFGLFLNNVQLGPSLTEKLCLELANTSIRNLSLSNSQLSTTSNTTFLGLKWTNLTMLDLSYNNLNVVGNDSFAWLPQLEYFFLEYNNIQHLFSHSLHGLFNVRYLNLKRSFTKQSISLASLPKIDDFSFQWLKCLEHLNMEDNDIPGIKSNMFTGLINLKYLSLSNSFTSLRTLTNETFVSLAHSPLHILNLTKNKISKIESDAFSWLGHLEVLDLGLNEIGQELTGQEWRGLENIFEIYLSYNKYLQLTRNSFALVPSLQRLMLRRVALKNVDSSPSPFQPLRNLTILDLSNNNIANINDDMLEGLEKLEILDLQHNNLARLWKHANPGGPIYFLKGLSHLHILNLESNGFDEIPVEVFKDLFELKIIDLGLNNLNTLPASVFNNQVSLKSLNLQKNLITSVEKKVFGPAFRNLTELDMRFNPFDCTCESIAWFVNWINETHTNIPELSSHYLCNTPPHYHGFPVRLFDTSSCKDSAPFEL
Description: Lipids were dried under a stream of nitrogen and resuspended i 100% ethanol, and 0.625 nmol was added in a 40 μL volume to each well of a half-area, 96-well plate. The solvent was evaporated under warm air for 90 minutes. 120 μL of blocking solution (150 mM NaCl, 20 mM sodium acetate pH 5.5 containing 3% BSA w/v) was added to each well and incubated for 1 hour at room temperature. Wells were then washed with (150 mM NaCl, 20 mM sodium acetate pH 5.5) followed by the addition of 40 μL of 6 μg/mL TLR 3 ectodomain in blocking solution to each well and the plate was incubated at 37° C. for 1 hour. The wells were washed 3 times and 40 μL of human TLR 3 primary antibody, diluted 1:500, was added and incubated overnight at 4° C. After washing out the primary antibody with (150 mM NaCl, 20 mM Tris pH 7.4), a secondary (rabbit anti-goat) antibody conjugated to horseradish peroxidase (HRP), diluted 1:1000, was added in 40 μL aliquots to each well and incubated at 37° C. for 1 hour. After washing, the peroxidase activity was detected with the substrate o-phenylenediamine and the absorbance read at 490 nm to detect degree of binding.
Solid phase lipid binding to fluid phase TLR 3 ectodomain was examined as a potential explanation for the differences in activity. Lipids were dried under a stream of nitrogen and resuspended in 100% ethanol. 0.625 nmol of lipid was plated per well in a 96-well plate and dried for 90 minutes. BSA was used to block non-specific binding and then TLR 3 protein was added to each well at 6 μg/mL and incubated at 37° C. for one hour. After washing out unbound protein, primary antibody was added for detection of TLR 3 and incubated overnight at 4° C. The following day secondary antibody conjugated to HRP was added to the wells and the peroxidase reaction activated by o-phenylenediamine. The absorbance was read at 490 nm to detect binding.

[1] = Inflammatory burden caused by intranasal inoculation of 18:1 DEPX; assay type: in vivo, mouse
Description: Doses of 18:1 DEPX ranging from 35 μg to 1 mg were administered to mice by intranasal inoculation. The inflammatory burden caused by delivery of the synthetic lipid to the mouse lung was assessed 24 hours following inoculation. At 24 hours, mice were sacrificed and BALF was collected. The cells in BALF were quantified and cell populations within the lavage fluid were assessed by staining and cytospin analysis.
In order to determine the dose of 18:1 DEPX that is used in RSV challenge experiments, the toxic effects of the lipid were studied by the inflammatory response it elicits following delivery. A range of doses of 18:1 DEPX, from 35 μg to 1 mg, was instilled intranasally to 6-8 week old female BALB/C mice. Mice were sacrificed 24 hours following lipid delivery to best assess immediate inflammatory response. Mouse lungs were lavaged with 1 mL PBS and BALF was assessed for total inflammatory cellular infiltrates quantitatively and further characterized for cell populations by cytospin.
Following quantification of cells in 1 mL BALF, cells were subjected to cytospin and fixed and stained on microscope slides. 500 cells were counted from each slide and the numbers of macrophages, neutrophils and lymphocytes recorded. Delivery of 18:1 DEPX to mice elicits an inflammatory response determined by the influx of neutrophils found in lavage. […] Therefore, a dose of 100 μg 18:1 DEPX was chosen to perform RSV challenge experiments.

TLR 5 = molecular target: T2, TLR 5 (Homo sapiens, UniProt O60602); assay: Flagellin-induced IL-8 in BEAS2B cells (TLR 5 antagonism); assay type: cell-based; conditions: lipid alone
T2 construct: endogenous in cells; host or cells: BEAS2B (ATCC)
Description: Human bronchial epithelial cells, BEAS2B, were obtained from ATCC and maintained in bronchial epithelial cell growth medium (BEGM), supplemented with the BulleKit from Lonza in accordance with protocol (M. H. Hudy, S. et al., “Cigarette smoke modulates rhinovirus-induced airway epithelial cell chemokine production.,” Eur. Respir. J., vol. 35, no. 6, pp. 1256-63, June 2010). Cells were cultured at 37 C with 5% carbon dioxide:95% air atmosphere maintained within the incubator. Experiments were conducted in 48-well plates and cells were seated at a density of 5×10^4 per well. After 24 hours, the BEGM medium was replaced with RPMI-1640 medium and incubated for an additional 24 hours. Liposomes were prepared as described above. […] Subsequently, media were collected, diluted and an enzyme-linked immunosorbent assay (ELISA) was performed to quantify IL-8 release by cells.
TLR 5 is an extracellular member of the TLR family. […] To address whether xylitol analogs antagonize TLR activation due to disruption or destruction of all membrane signaling, PX lipids were assessed at the highest concentration used in experiments reported in this example in human bronchial epithelial cells, BEAS2B, for antagonism of flagellin activation of TLR 5. The cytokine, IL-8, was quantified as an output of TLR 5 activation.

T2 sequence (O60602 21-858): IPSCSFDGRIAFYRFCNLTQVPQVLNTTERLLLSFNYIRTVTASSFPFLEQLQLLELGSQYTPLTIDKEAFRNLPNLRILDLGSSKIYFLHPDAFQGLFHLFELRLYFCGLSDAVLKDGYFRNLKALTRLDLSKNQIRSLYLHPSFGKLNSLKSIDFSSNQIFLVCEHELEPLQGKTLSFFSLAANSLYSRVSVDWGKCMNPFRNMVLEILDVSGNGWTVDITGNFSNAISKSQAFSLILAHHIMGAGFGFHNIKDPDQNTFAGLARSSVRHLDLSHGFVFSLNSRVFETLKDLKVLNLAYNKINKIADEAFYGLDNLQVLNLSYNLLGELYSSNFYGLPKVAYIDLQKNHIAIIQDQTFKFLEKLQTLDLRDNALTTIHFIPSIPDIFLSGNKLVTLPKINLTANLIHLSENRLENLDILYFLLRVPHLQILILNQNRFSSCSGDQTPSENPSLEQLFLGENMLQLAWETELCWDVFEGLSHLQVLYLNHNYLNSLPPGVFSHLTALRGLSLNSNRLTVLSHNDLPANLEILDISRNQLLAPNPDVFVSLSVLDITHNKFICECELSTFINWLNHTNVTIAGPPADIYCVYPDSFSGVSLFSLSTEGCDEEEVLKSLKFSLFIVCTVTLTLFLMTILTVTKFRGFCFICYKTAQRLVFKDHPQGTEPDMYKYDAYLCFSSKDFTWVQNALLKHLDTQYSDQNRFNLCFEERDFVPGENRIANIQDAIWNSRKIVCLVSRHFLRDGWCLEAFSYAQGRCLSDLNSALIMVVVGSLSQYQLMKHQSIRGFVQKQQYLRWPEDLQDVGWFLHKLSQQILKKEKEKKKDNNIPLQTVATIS

Row | SMILES | binding to TLR 3 ectodomain (TLR 3 ectodomain) | concentration-dependent binding of TLR 3 (TLR 3 ectodomain) | IL-8 secretion in the absence of Flagellin stimulus (TLR 5) | other results
1 | CCCCCCCC/C=C\CCCCCCCC(=O)O[C@H](COC(=O)CCCCCCCCCCCCCCC)COP(=O)(O)OCC(O)CO (stereo partly drawn) [POPG, palmitoyl-oleoyl-phosphatidylglycerol, reference compound] | specific binding to TLR 3 ectodomain | significantly different from POPC | – | –
2 | CCCCCCCCC=CCCCCCCCCOCC(COP(=O)(O)OCC(O)C(O)C(O)CO)OCCCCCCCCC=CCCCCCCCC (mixture of isomers) [18:1 DEPX, sn-1-O-octadecenyl, sn-2-O-octadecenyl sn-3 glycerol phosphoxylitol] | not statistically different from POPG | significantly different from POPC | – | BALF cell counts compared to PBS control ([1]; 35 μg, 75 μg, 150 μg and 250 μg intranasal, 24 hours): did not have cell counts distinguishable from the control; neutrophils in BALF (cytospin) ([1]; 75 μg intranasal, 24 hours): significant numbers of neutrophils; BALF cell counts compared to PBS control ([1]; 300 μg, 500 μg and 1 mg intranasal, 24 hours): significantly higher cell counts; mortality ([1]; 1 mg intranasal): One mouse in the group that received 1 mg of 18:1 DEPX died; dose giving significant cellular infiltrates compared to control mice ([1]; intranasal, 24 hours): ≥ 300 µg; doses accompanied with significant cellular infiltrates compared with PBS control ([1]; intranasal, 24 hours): ≥ 300 µg
3 | CCCCCCC=CCCCCCCCC(=O)OCC(COP(=O)(O)OCC(O)C(O)C(O)CO)OC(=O)CCCCCCCC=CCCCCCC (mixture of isomers) [16:1 DPPX, sn-1-palmitoleoyl, sn-2-palmitoleoyl sn-3 glycerol phosphoxylitol] | – | significantly different from POPC | stimulate IL-8 secretion over that of the control | –
4 | CCCCCCCCCCCCCCOC[C@H](COP(=O)(O)OCC(O)C(O)C(O)CO)OCCCCCCCCCCCCCC (mixture of isomers) [14:0 DEPX, sn-1-O-myristyl, sn-2-O-myristyl sn-3 glycerol phosphoxylitol] | all xylitol analogs except 14:0 DEPX demonstrated specific binding | – | – | –
5 | CCCCCC=CCC=CCCCCCCCC(=O)OCC(COP(=O)(O)OCC(O)C(O)C(O)CO)OC(=O)CCCCCCCC=CCC=CCCCCC (mixture of isomers) [18:2 DLPX, sn-1-linoleoyl, sn-2-linoleoyl sn-3 glycerol phosphoxylitol] | not statistically different from POPG | – | stimulate IL-8 secretion over that of the control | –
